One assay has as its system TFF1. The note with it: reportedly; Prud'homme et al. 1985; cited from earlier work.
The subject of assay [1] is primary invasive breast cancer. In words: Clinical tumor response (WHO criteria) in randomized Phase III neoadjuvant trial of letrozole versus tamoxifen. Type of assay: in vivo, human (postmenopausal women). The note with it: clinical outcome of patients with profiled biopsies; clinical assessment by palpation at 4 months. From the text:
Definitions of Objective Response Used in the Letrozole (FEMARA™) vs. Tamoxifen Comparison Study
1. Complete Response (CR): The disappearance of all known disease, determined by 2 observations not less than 4 weeks apart.
2. Partial Response (PR): A 50% or more decrease in total tumor size of the lesions which have been measured to determine the effect of therapy by 2 observations not less than 4 weeks apart. In addition there can be no appearance of new lesions or progression of any lesion.
4. Progressive Disease (PD): A 25% or more increase in the size of one or more measurable lesions, or the appearance of new lesions.
Clinical Response Assessment
The primary efficacy variable was tumor response, assessed by clinical examination using World Health Organization (WHO) criteria (see, WHO Handbook for Reporting Results of Cancer Treatment). It was defined as the percentage of patients in each treatment group with a CR or PR as determined clinically in the breast by palpation at 4 months. Possible responses were CR, PR, NC, PD or not assessable/not evaluable (NA/NE). Palpable ipsilateral axillary lymph nodal involvement downgraded a clinical CR in tumor. Other factors were also considered such the percentage of patients who underwent breast-conserving surgery (quadrantectomy/lumpectomy) instead of mastectomy. Patients who became inoperable, or who remained inoperable at 4 months, were counted as treatment failures.
Twenty-one RNA samples were extracted from 14-gauge needle core biopsies collected before initiation of neoadjuvant endocrine therapy from patients enrolled in a randomized Phase III trial of letrozole (FEMARA™, Novartis Pharma, Basal Switzerland) versus tamoxifen for postmenopausal women with primary invasive breast cancer ineligible for breast conserving surgery. RNA was extracted from an additional 30 primary breast adenocarcinomas collected in Sweden, one additional ESR1+breast tumor surgical biopsy, two HUVEC samples, two samples from glioblastoma cell line U373-MG and one MCF7 sample using Trizol (Life Technologies, Gaithersburg, Md.). The clinical samples were collected after informed consent had been obtained according to protocols approved by local ethics committees. RNA was purchased for two samples, an infiltrating Stage III duct carcinoma (Ambion, Austin, Tex.) and a pool of two normal breast tissues (Clontech, Palo Alto, Calif.). The total number of samples prepared was 59 including 53 breast cancer biopsies and one pooled normal breast sample. Total RNA was purified using QIAGEN RNEASY™ columns (Qiagen, Valencia, Calif.), processed and hybridized to the HUGENE™ FL 6800 Array (Affymetrix, Santa Clara, Calif.), as described by Lockhart et al., Nat. Biotechnol., Vol. 14, pp. 1675-1680 (1996).
In another aspect of the invention 136 breast biopsies from 53 patients were obtained. RNA was extracted from 116 biopsies. Expression profiles were generated for 43 biopsies from 35 patients. Predictive markers of endocrine therapy responsiveness in breast tumors were identified. The breakdown of the profiled biopsies from the pre-letrozole (FEMARA™) treatments and the patient's clinical outcome was as follows: four patients with CR, nine patients with PR, four patients with NC and four patients with PD.
For the group treated with tamoxifen there were no patients in the CR category, 10 patients with PR, seven patients with NC and four patients with PD.
Patients with CR or PR were classified as “Responders” and those with NC or PD were classified as “Non-responders”. The expression of 8,000 genes was compared between these two groups in the pre-treatment biopsies from patients given Letrozole (FEMARA™). Numerical values (AvDiff) represent the expression level for that gene in a particular sample. For computational reasons the average of the AvDiff values was calculated for each gene on the array for all of the responders. These averages were then compared to each gene for each individual sample in the Non-responders group. […]

Assay [2] relates to advanced ER-positive breast cancer. The note with it: patients with advanced ER-positive breast cancer; Clark et al. 1988; cited from earlier work.

Regarding `C[C@]12CCC(=O)C[C@@H]1CC[C@@H]1[C@@H]2CC[C@]2(C)[C@@H](O)CC[C@@H]12` [dihydrotestosterone], the “effect on TFF1 mRNA levels” value with TFF1 is on record as “not”.
As for `CC/C(=C(\c1ccccc1)c1ccc(OCCN(C)C)cc1)c1ccccc1` [tamoxifen], in assay [1], the “patients with Complete Response (CR)” value is “no”, the “patients with No Change (NC)” value was “seven”, the “patients with Partial Response (PR)” value is given as 10 patients and the “patients with Progressive Disease (PD)” value is given as “four”. In addition, the response rate entry in assay [2] is “around 50%”. In the assay on TFF1, the “effect on estradiol induction of TFF1” value is given as “inhibited”.
Turning to `N#Cc1ccc(C(c2ccc(C#N)cc2)n2cncn2)cc1` [letrozole], in assay [1], the “patients with Complete Response (CR)” value is “four”, the “patients with No Change (NC)” value is listed as “four”, the “patients with Partial Response (PR)” value was “nine” and the “patients with Progressive Disease (PD)” value is recorded as “four”.
Take `CC(=O)[C@H]1CC[C@H]2[C@@H]3CCC4=CC(=O)CC[C@]4(C)[C@H]3CC[C@]12C` [progesterone]: the “effect on TFF1 mRNA levels” value in the assay on TFF1 is given as “not”.
